# Results from ChEMBL document CHEMBL1154899, “Synthesis and biological evaluation of caffeic acid 3,4-dihydroxyphenethyl ester” (J Nat Prod, 2010).
# Key:
# Type in all cases: functional
# K562 = assay: Antiproliferative activity against human K562 cells assessed as cell growth at 50 uM by SRB assay; conditions: read-out: Activity
# NCI-H226 [1] = assay: Antiproliferative activity against human NCI-H226 cells assessed as cell growth at 500 uM by SRB assay; conditions: read-out: Activity
# NCI-H226 [2] = assay: Antiproliferative activity against human NCI-H226 cells by SRB assay
# DU-145 = assay: Antiproliferative activity against human DU145 cells by SRB assay
# A498 [3] = assay: Antiproliferative activity against human A498 cells assessed as cell growth at 5 uM by SRB assay; conditions: read-out: Activity
# BT-549 = assay: Antiproliferative activity against human BT549 cells assessed as cell growth at 500 uM by SRB assay; conditions: read-out: Activity
# SNB-19 [4] = assay: Antiproliferative activity against human SNB19 cells assessed as cell growth at 5 uM by SRB assay; conditions: read-out: Activity
# CCRF-CEM [5] = assay: Antiproliferative activity against human CCRF-CEM cells assessed as cell growth at 5 uM by SRB assay; conditions: read-out: Activity
# HCT-116 [6] = assay: Antiproliferative activity against human HCT116 cells assessed as cell growth at 5 uM by SRB assay; conditions: read-out: Activity
# NCI-H226 [7] = assay: Antiproliferative activity against human NCI-H226 cells assessed as cell growth at 5 uM by SRB assay; conditions: read-out: Activity
# MCF7 = assay: Antiproliferative activity against human MCF7 cells assessed as cell growth at 5 uM by SRB assay; conditions: read-out: Activity
# NCI-H322M [8] = assay: Antiproliferative activity against human NCI-H322M cells assessed as cell growth at 50 uM by SRB assay; conditions: read-out: Activity
# NCI/ADR-RES = assay: Antiproliferative activity against human NCI/ADR-RES cells by SRB assay
# SF-268 [9] = assay: Antiproliferative activity against human SF268 cells assessed as cell growth at 500 uM by SRB assay; conditions: read-out: Activity
# SK-MEL-5 = assay: Antiproliferative activity against human SK-MEL-5 cells assessed as cell growth at 0.5 uM by SRB assay; conditions: read-out: Activity
# A498 [10] = assay: Antiproliferative activity against human A498 cells assessed as cell growth at […] by SRB assay; conditions: read-out: Activity
# HCT-116 [11] = assay: Antiproliferative activity against human HCT116 cells by SRB assay
# LOX IMVI = assay: Antiproliferative activity against human LOXIMVI cells assessed as cell growth at 500 uM by SRB assay; conditions: read-out: Activity
# NCI-H522 = assay: Antiproliferative activity against human NCI-H522 cells by SRB assay
# SNB-75 = assay: Antiproliferative activity against human SNB75 cells assessed as cell growth at 5 uM by SRB assay; conditions: read-out: Activity
# NCI-H322M [12] = assay: Antiproliferative activity against human NCI-H322M cells assessed as cell growth at 500 uM by SRB assay; conditions: read-out: Activity
# KM12 = assay: Antiproliferative activity against human KM12 cells assessed as cell growth at 5 uM by SRB assay; conditions: read-out: Activity
# MDA-MB-435 [13] = assay: Antiproliferative activity against human MDA-MB-435 cells assessed as cell growth at 5 uM by SRB assay; conditions: read-out: Activity
# A549 = assay: Antiproliferative activity against human A549 cells assessed as cell growth at 50 uM by SRB assay; conditions: read-out: Activity
# [14] = Antiproliferative activity against human Hs 578T cells assessed as cell growth at 50 uM by SRB assay; conditions: read-out: Activity
# SF-539 = assay: Antiproliferative activity against human SF539 cells assessed as cell growth at 0.5 uM by SRB assay; conditions: read-out: Activity
# UO-31 = assay: Antiproliferative activity against human UO31 cells assessed as cell growth at 5 uM by SRB assay; conditions: read-out: Activity
# MDA-MB-435 [15] = assay: Antiproliferative activity against human MDA-MB-435 cells by SRB assay
# SNB-19 [16] = assay: Antiproliferative activity against human SNB19 cells by SRB assay
# HOP-92 = assay: Antiproliferative activity against human HOP92 cells assessed as cell growth at 50 uM by SRB assay; conditions: read-out: Activity
# EKVX = assay: Antiproliferative activity against human EKVX cells assessed as cell growth at […] by SRB assay; conditions: read-out: Activity
# SR = assay: Antiproliferative activity against human SR cells assessed as cell growth at 50 uM by SRB assay; conditions: read-out: Activity
# 786-0 = assay: Antiproliferative activity against human 786-0 cells assessed as cell growth at 500 uM by SRB assay; conditions: read-out: Activity
# [17] = Antiproliferative activity against human […] cells assessed as cell growth at 500 uM by SRB assay; conditions: read-out: Activity
# OVCAR-8 = assay: Antiproliferative activity against human OVCAR8 cells assessed as cell growth at 0.5 uM by SRB assay; conditions: read-out: Activity
# T47D = assay: Antiproliferative activity against human T47D cells by SRB assay
# CCRF-CEM [18] = assay: Antiproliferative activity against human CCRF-CEM cells assessed as cell growth at 50 uM by SRB assay; conditions: read-out: Activity
# HOP-62 = assay: Antiproliferative activity against human HOP62 cells by SRB assay
# SF-268 [19] = assay: Antiproliferative activity against human SF268 cells assessed as cell growth at 50 uM by SRB assay; conditions: read-out: Activity
# SK-OV-3 = assay: Antiproliferative activity against human SKOV3 cells assessed as cell growth at 50 uM by SRB assay; conditions: read-out: Activity
# COLO 205 = assay: Antiproliferative activity against human COLO205 cells assessed as cell growth at 0.5 uM by SRB assay; conditions: read-out: Activity
# [20] = read-out: LC50 (the source's name)
# [21] = read-out: pLC50 (the source's name) (converted)
smiles,measurement,setting,value
O=C(/C=C/c1ccc(O)c(O)c1)OCCc1ccc(O)c(O)c1,growth at 50 µM,K562,90%
same,growth at 500 µM,NCI-H226 [1],79%
same,GI50,NCI-H226 [2]; read-out: GI50,13.3 µM
same,CC50,NCI-H226 [2]; [20],> 50 µM
same,TGI,NCI-H226 [2]; read-out: TGI,> 50 µM
same,GI50,NCI-H226 [2]; read-out: pGI50 (converted),13.5 µM
same,CC50,NCI-H226 [2]; [21],> 50.1 µM
same,TGI,NCI-H226 [2]; read-out: pTGI,> 50.1 µM
same,GI50,DU-145; read-out: GI50,9.75 µM
same,CC50,DU-145; [20],> 50 µM
same,GI50,DU-145; read-out: pGI50 (converted),9.77 µM
same,CC50,DU-145; [21],> 50.1 µM
same,TGI,DU-145; read-out: pTGI (converted),30.2 µM
same,growth at 5 µM,A498 [3],81%
same,growth at 500 µM,BT-549,60%
same,growth at 5 µM,SNB-19 [4],95%
same,growth at 5 µM,CCRF-CEM [5],99%
same,growth at 5 µM,HCT-116 [6],97%
same,growth at 5 µM,NCI-H226 [7],99%
same,growth at 5 µM,MCF7,108%
same,growth at 50 µM,NCI-H322M [8],97%
same,GI50,NCI/ADR-RES; read-out: GI50,10.9 µM
same,CC50,NCI/ADR-RES; [20],> 50 µM
same,TGI,NCI/ADR-RES; read-out: TGI,44.9 µM
same,GI50,NCI/ADR-RES; read-out: pGI50 (converted),10.5 µM
same,CC50,NCI/ADR-RES; [21],> 50.1 µM
same,TGI,NCI/ADR-RES; read-out: pTGI (converted),44.7 µM
same,growth at 500 µM,SF-268 [9],57%
same,growth at 0.5 µM,SK-MEL-5,97%
same,growth,A498 [10],-11%
same,GI50,HCT-116 [11]; read-out: GI50,11.2 µM
same,CC50,HCT-116 [11]; [20],> 50 µM
same,TGI,HCT-116 [11]; read-out: TGI,> 50 µM
same,GI50,HCT-116 [11]; read-out: pGI50 (converted),11.2 µM
same,CC50,HCT-116 [11]; [21],> 50.1 µM
same,TGI,HCT-116 [11]; read-out: pTGI,> 50.1 µM
same,growth at 500 µM,LOX IMVI,57%
same,GI50,NCI-H522; read-out: GI50,1.26 µM
same,CC50,NCI-H522; [20],> 50 µM
same,TGI,NCI-H522; read-out: TGI,8.61 µM
same,GI50,NCI-H522; read-out: pGI50 (converted),1.26 µM
same,CC50,NCI-H522; [21],> 50.1 µM
same,TGI,NCI-H522; read-out: pTGI (converted),8.91 µM
same,growth at 5 µM,SNB-75,75%
same,growth at 500 µM,NCI-H322M [12],86%
same,growth at 5 µM,KM12,95%
same,growth at 5 µM,MDA-MB-435 [13],92%
same,growth at 50 µM,A549,101%
same,growth at 50 µM,[14],80%
same,growth at 0.5 µM,SF-539,90%
same,growth at 5 µM,UO-31,93%
same,GI50,MDA-MB-435 [15]; read-out: GI50,4.01 µM
same,CC50,MDA-MB-435 [15]; [20],> 50 µM
same,TGI,MDA-MB-435 [15]; read-out: TGI,> 50 µM
same,GI50,MDA-MB-435 [15]; read-out: pGI50 (converted),3.98 µM
same,CC50,MDA-MB-435 [15]; [21],> 50.1 µM
same,TGI,MDA-MB-435 [15]; read-out: pTGI,> 50.1 µM
same,GI50,SNB-19 [16]; read-out: GI50,15.5 µM
same,CC50,SNB-19 [16]; [20],> 50 µM
same,TGI,SNB-19 [16]; read-out: TGI,> 50 µM
same,GI50,SNB-19 [16]; read-out: pGI50 (converted),15.5 µM
same,CC50,SNB-19 [16]; [21],> 50.1 µM
same,TGI,SNB-19 [16]; read-out: pTGI,> 50.1 µM
same,growth at 50 µM,HOP-92,55%
same,growth,EKVX,19%
same,growth at 50 µM,SR,77%
same,growth at 500 µM,786-0,81%
same,growth at 500 µM,[17],11%
same,growth at 0.5 µM,OVCAR-8,78%
same,GI50,T47D; read-out: GI50,11.3 µM
same,CC50,T47D; [20],> 50 µM
same,TGI,T47D; read-out: TGI,> 50 µM
same,GI50,T47D; read-out: pGI50 (converted),11.2 µM
same,CC50,T47D; [21],> 50.1 µM
same,TGI,T47D; read-out: pTGI,> 50.1 µM
same,growth at 50 µM,CCRF-CEM [18],60%
same,GI50,HOP-62; read-out: GI50,29.1 µM
same,CC50,HOP-62; [20],> 50 µM
same,TGI,HOP-62; read-out: TGI,> 50 µM
same,GI50,HOP-62; read-out: pGI50 (converted),28.8 µM
same,CC50,HOP-62; [21],> 50.1 µM
same,TGI,HOP-62; read-out: pTGI,> 50.1 µM
same,growth at 50 µM,SF-268 [19],85%
same,growth at 50 µM,SK-OV-3,88%
same,growth at 0.5 µM,COLO 205,99%
